Assay results: the NIST ThermoML archive (doi:10.1016/j.fluid.2019.05.003)

Experiment: xn = mol fraction of the nth substance listed
Settings: 101 kPa, Liquid; for viscosity: Falling or rolling sphere viscometry; for mass density: Vibrating tube method

CC[N+](C)(C)CCO.[Br-] [ethyl(2-hydroxyethyl)dimethylammonium bromide] + O
Settings | mass density [kg/m3] | viscosity [mPa·s]
298.15 K, x1 = 0.026 | 1061.1 | 1.249
298.15 K, x1 = 0.049 | 1103.4 | 1.613
298.15 K, x1 = 0.068 | 1132.6 | 2.066
298.15 K, x1 = 0.086 | 1155.4 | 2.594
298.15 K, x1 = 0.119 | 1190.7 | 4.028
298.15 K, x1 = 0.156 | 1220 | 6.186
298.15 K, x1 = 0.185 | 1238.4 | 9.494
298.15 K, x1 = 0.214 | 1254.1 | 13
298.15 K, x1 = 0.257 | 1273.4 | 20.35
298.15 K, x1 = 0.319 | 1293.9 | 35.33
303.15 K, x1 = 0.026 | 1059.2 | 1.117
303.15 K, x1 = 0.049 | 1101.3 | 1.463
303.15 K, x1 = 0.068 | 1130.3 | 1.836
303.15 K, x1 = 0.086 | 1153 | 2.292
303.15 K, x1 = 0.119 | 1188.1 | 3.487
303.15 K, x1 = 0.156 | 1217.2 | 5.347
303.15 K, x1 = 0.185 | 1235.6 | 8.22
303.15 K, x1 = 0.214 | 1251.3 | 11.13
303.15 K, x1 = 0.257 | 1270.5 | 17.24
303.15 K, x1 = 0.319 | 1290.9 | 29.38
308.15 K, x1 = 0.026 | 1057.2 | 1.017
308.15 K, x1 = 0.049 | 1099.1 | 1.296
308.15 K, x1 = 0.068 | 1127.9 | 1.645
308.15 K, x1 = 0.086 | 1150.4 | 2.046
308.15 K, x1 = 0.119 | 1185.4 | 3.095
308.15 K, x1 = 0.156 | 1214.5 | 4.593
308.15 K, x1 = 0.185 | 1232.8 | 7.127
308.15 K, x1 = 0.214 | 1248.4 | 9.581
308.15 K, x1 = 0.257 | 1267.6 | 14.63
308.15 K, x1 = 0.319 | 1288 | 24.38
313.15 K, x1 = 0.026 | 1055.1 | 0.917
313.15 K, x1 = 0.049 | 1096.7 | 1.171
313.15 K, x1 = 0.068 | 1125.4 | 1.484
313.15 K, x1 = 0.086 | 1147.9 | 1.839
313.15 K, x1 = 0.119 | 1182.7 | 2.771
313.15 K, x1 = 0.156 | 1211.7 | 4.112
313.15 K, x1 = 0.185 | 1229.9 | 6.185
313.15 K, x1 = 0.214 | 1245.5 | 8.263
313.15 K, x1 = 0.257 | 1264.6 | 12.43
313.15 K, x1 = 0.319 | 1285 | 20.45
318.15 K, x1 = 0.026 | 1052.6 | 0.841
318.15 K, x1 = 0.049 | 1093.9 | 1.068
318.15 K, x1 = 0.068 | 1122.8 | 1.35
318.15 K, x1 = 0.086 | 1145.2 | 1.663
318.15 K, x1 = 0.119 | 1179.9 | 2.486
318.15 K, x1 = 0.156 | 1208.8 | 3.655
318.15 K, x1 = 0.185 | 1227 | 5.378
318.15 K, x1 = 0.214 | 1242.5 | 7.16
318.15 K, x1 = 0.257 | 1261.7 | 10.68
318.15 K, x1 = 0.319 | 1282 | 17.3
323.15 K, x1 = 0.026 | 1050.7 | 0.775
323.15 K, x1 = 0.049 | 1091.4 | 0.98
323.15 K, x1 = 0.068 | 1120.1 | 1.234
323.15 K, x1 = 0.086 | 1142.5 | 1.513
323.15 K, x1 = 0.119 | 1177.1 | 2.242
323.15 K, x1 = 0.156 | 1205.9 | 3.307
323.15 K, x1 = 0.185 | 1224.1 | 4.688
323.15 K, x1 = 0.214 | 1239.6 | 6.248
323.15 K, x1 = 0.257 | 1258.7 | 9.249
323.15 K, x1 = 0.319 | 1279 | 14.91
328.15 K, x1 = 0.026 | 1048.6 | 0.72
328.15 K, x1 = 0.049 | 1088.9 | 0.902
328.15 K, x1 = 0.068 | 1117.2 | 1.132
328.15 K, x1 = 0.086 | 1139.7 | 1.382
328.15 K, x1 = 0.119 | 1174.2 | 2.034
328.15 K, x1 = 0.156 | 1203 | 2.962
328.15 K, x1 = 0.185 | 1221.2 | 4.143
328.15 K, x1 = 0.214 | 1236.6 | 5.498
328.15 K, x1 = 0.257 | 1255.7 | 8.108
328.15 K, x1 = 0.319 | 1276 | 12.84
333.15 K, x1 = 0.026 | 1046.5 | 0.669
333.15 K, x1 = 0.049 | 1085.9 | 0.837
333.15 K, x1 = 0.068 | 1114.5 | 1.046
333.15 K, x1 = 0.086 | 1136.8 | 1.273
333.15 K, x1 = 0.119 | 1171.2 | 1.857
333.15 K, x1 = 0.156 | 1200.1 | 2.679
333.15 K, x1 = 0.185 | 1218.2 | 3.576
333.15 K, x1 = 0.214 | 1233.6 | 4.864
333.15 K, x1 = 0.257 | 1252.7 | 7.142
333.15 K, x1 = 0.319 | 1273 | 11.49
338.15 K, x1 = 0.026 | 1044.3 | 0.632
338.15 K, x1 = 0.049 | 1083.9 | 0.786
338.15 K, x1 = 0.068 | 1112.2 | 0.965
338.15 K, x1 = 0.086 | 1134.1 | 1.174
338.15 K, x1 = 0.119 | 1168.1 | 1.707
338.15 K, x1 = 0.156 | 1197.1 | 2.439
338.15 K, x1 = 0.185 | 1215.2 | 3.122
338.15 K, x1 = 0.214 | 1230.6 | 4.315
338.15 K, x1 = 0.257 | 1249.7 | 6.33
338.15 K, x1 = 0.319 | 1270 | 10.29
343.15 K, x1 = 0.026 | 1042.2 | 0.588
343.15 K, x1 = 0.049 | 1081.4 | 0.737
343.15 K, x1 = 0.068 | 1109.6 | 0.906
343.15 K, x1 = 0.086 | 1131.4 | 1.112
343.15 K, x1 = 0.119 | 1165.6 | 1.569
343.15 K, x1 = 0.156 | 1194 | 2.202
343.15 K, x1 = 0.185 | 1212.1 | 2.835
343.15 K, x1 = 0.214 | 1227.6 | 3.849
343.15 K, x1 = 0.257 | 1246.6 | 5.548
343.15 K, x1 = 0.319 | 1266.9 | 9.319
348.15 K, x1 = 0.026 | 1040.1 | 0.56
348.15 K, x1 = 0.049 | 1078.9 | 0.679
348.15 K, x1 = 0.068 | 1107 | 0.853
348.15 K, x1 = 0.086 | 1128.3 | 1.071
348.15 K, x1 = 0.119 | 1162.8 | 1.454
348.15 K, x1 = 0.156 | 1190.9 | 2.022
348.15 K, x1 = 0.185 | 1209.4 | 2.576
348.15 K, x1 = 0.214 | 1224.5 | 3.479
348.15 K, x1 = 0.257 | 1243.6 | 4.96
348.15 K, x1 = 0.319 | 1263.9 | 8.658

O [water] + CC[n+]1ccccc1.[Br-]
x2 = 0
Settings | mass density [kg/m3] | viscosity [mPa·s]
298.15 K | – | 0.89
303.15 K | – | 0.797
308.15 K | – | 0.719
313.15 K | – | 0.653
318.15 K | 990.1 | 0.596
323.15 K | 987.9 | 0.547
328.15 K | 985.6 | 0.504
333.15 K | 983.2 | 0.466
338.15 K | 980.3 | 0.433
343.15 K | 978.1 | 0.404
348.15 K | 974.8 | 0.378
